Measured values taken from PubChem BioAssay AID328 (DTP/NCI, 2004).
“And” between values parts separate entries of the source, which are not always exact repeats. Equal values may be shown once. Toxic doses and inconclusive results are not listed. Rule for the calls: active = survival T/C of 150% or more; inactive = T/C below 125% in these data.

Test system: BDF1 mice, P388 leukemia ip, median survival T/C
Experiment: NCI In Vivo Anticancer Drug Screen. Data for tumor model P388 Leukemia (intraperitoneal) in B6D2F1 (BDF1) mice
Conditions: endpoint: median survival time, higher = longer survival
Method in brief: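 Read-out is survival of treated animals expressed relative to the vehicle group, as a T/C ratio.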

[1] = dose: 50.0 mg/kg/injection, schedule: Q04DX003 (ip), vehicle: saline
[2] = dose: 100.0 mg/kg/injection, schedule: Q04DX003 (ip), vehicle: saline
[3] = dose: 100.0 mg/kg/injection, schedule: Q04DX003 (ip), vehicle: saline with Tween-80
[4] = dose: 200.0 mg/kg/injection, schedule: Q04DX003 (ip), vehicle: saline with Tween-80

Measured: T/C

C=C(CCC(C(=O)O)C1CCC2(C)C3=C(CCC12C)C1(C)CCC(O)C(C)(C)C1CC3)C(C)C (stereo not given)
inactive: dose: 12.5 mg/kg/injection, schedule: Q01DX009 (sc), vehicle: steriod suspending solution 100 % of control | dose: 25.0 mg/kg/injection, schedule: Q01DX009 (sc), vehicle: steriod suspending solution 99 % of control | dose: 50.0 mg/kg/injection, schedule: Q01DX009 (ip), vehicle: steriod suspending solution 87 % of control | dose: 50.0 mg/kg/injection, schedule: Q01DX009 (sc), vehicle: steriod suspending solution 98 % of control | dose: 100.0 mg/kg/injection, schedule: Q01DX009 (ip), vehicle: steriod suspending solution 92 % of control | dose: 100.0 mg/kg/injection, schedule: Q01DX009 (sc), vehicle: steriod suspending solution 101 % of control and 106 % of control | dose: 200.0 mg/kg/injection, schedule: Q01DX009 (sc), vehicle: steriod suspending solution 91 % of control

N#CCc1cnc2nc(N)nc(N)c2n1
inactive: dose: 3.13 mg/kg/injection, schedule: Q01DX009 (ip), vehicle: other 102 % of control | dose: 6.25 mg/kg/injection, schedule: Q01DX009 (ip), vehicle: other 98 % of control | dose: 12.5 mg/kg/injection, schedule: Q01DX009 (ip), vehicle: other 107 % of control | dose: 25.0 mg/kg/injection, schedule: Q01DX009 (ip), vehicle: other 107 % of control

CC(C)CN1CCOCC1
inactive: dose: 25.0 mg/kg/injection, schedule: Q04DX003 (ip), vehicle: saline 95 % of control | [1] 108 % of control | [2] 95 % of control

COc1cc[n+]([O-])cc1/C=C/c1c[n+]([O-])ccc1OC
inactive: dose: 25.0 mg/kg/injection, schedule: Q04DX003 (ip), vehicle: saline with Tween-80 94 % of control | dose: 50.0 mg/kg/injection, schedule: Q04DX003 (ip), vehicle: saline with Tween-80 119 % of control | [3] 103 % of control | [4] 108 % of control

COc1ccc([I+]c2ccc(OC)cc2)cc1
inactive: dose: 1.56 mg/kg/injection, schedule: Q01DX009 (ip), vehicle: saline 100 % of control | dose: 3.13 mg/kg/injection, schedule: Q01DX009 (ip), vehicle: saline 100 % of control | dose: 6.25 mg/kg/injection, schedule: Q01DX009 (ip), vehicle: saline 109 % of control | dose: 12.5 mg/kg/injection, schedule: Q04DX003 (ip), vehicle: saline sonified 100 % of control | dose: 25.0 mg/kg/injection, schedule: Q04DX003 (ip), vehicle: saline sonified 100 % of control | dose: 50.0 mg/kg/injection, schedule: Q04DX003 (ip), vehicle: saline sonified 100 % of control

COc1ccc2c(C(=O)CCC(=O)O)cccc2c1
inactive: dose: 100.0 mg/kg/injection, schedule: Q01DX001 (ip), vehicle: saline 100 % of control | dose: 200.0 mg/kg/injection, schedule: Q01DX001 (ip), vehicle: saline 100 % of control | dose: 400.0 mg/kg/injection, schedule: Q01DX001 (ip), vehicle: saline 100 % of control

COC(=O)c1c(Cl)c(Cl)c(C(=O)OC)c(Cl)c1Cl
inactive: dose: 25.0 mg/kg/injection, schedule: Q01DX009 (ip), vehicle: saline with Tween-80 100 % of control | dose: 50.0 mg/kg/injection, schedule: Q01DX009 (ip), vehicle: saline with Tween-80 100 % of control | dose: 100.0 mg/kg/injection, schedule: Q01DX009 (ip), vehicle: saline with Tween-80 86 % of control | [3] 91 % of control | [4] 108 % of control | dose: 266.0 mg/kg/injection, schedule: Q04DX003 (ip), vehicle: saline with Tween-80 95 % of control | dose: 400.0 mg/kg/injection, schedule: Q04DX003 (ip), vehicle: saline with Tween-80 90 % of control | dose: 600.0 mg/kg/injection, schedule: Q04DX003 (ip), vehicle: saline with Tween-80 100 % of control

C[S+](C)Cc1ccc(C(=O)Oc2ccc([N+](=O)[O-])cc2)cc1
inactive: dose: 50.0 mg/kg/injection, schedule: Q01DX009 (ip), vehicle: saline 100 % of control | [1] 100 % of control | dose: 100.0 mg/kg/injection, schedule: Q01DX009 (ip), vehicle: saline 105 % of control | [2] 109 % of control | dose: 200.0 mg/kg/injection, schedule: Q04DX003 (ip), vehicle: saline 100 % of control
